According to patent US9346769B2, “Tetrazolones as inhibitors of fatty acid synthase” (Infinity Pharmaceuticals, Inc., priority 2010, dated 2016):

target: T1, human FASN (Homo sapiens, UniProt P49327); experiment: FASN NADPH Consumption Assay; type: biochemical; conditions: human FASN purified from SKBR3 cells; starred symbols
T1 construct: was purified from SKBR3 cells using procedures modified from those in Jayakumar et al; endogenous in cells; host or cells: SKBR3 human breast cancer cells (ATCC); Endogenous enzyme purified by ammonium sulfate precipitation and a mono Q column
Method: Human FASN protein (SEQ ID NO. 1) was purified from SKBR3 cells using procedures modified from those in Jayakumar et al. PNAS 1995, 92:8695-8699. SKBR3 cells were obtained from ATCC and grown in DMEM high glucose medium supplemented with 10% FBS, 1 μg/mL bovine pancreas insulin, 100 U/mL penicillin and 100 µg/mL streptomycin. The confluent cells were trypsinized and washed three times with PBS buffer before frozen in liquid N2 and stored at −80° C. Frozen cells were thawed on ice and resuspended in lysis buffer (25 mM Tris-HCl, pH 7.0, 15 mM NaCl, 1 mM EDTA, and 1 mM DTT) with protease inhibitors. The cells were lysed by sonication, and the cell debris was removed by centrifugation at 20,000 rpm for 30 min. To the supernatant, neutralized saturated ammonium sulfate solution was added to a final concentration of 35%. The solution was left on ice for 1 hr, and the precipitated proteins were harvested by centrifugation at 20,000 rpm for 30 min. The proteins were redissolved in lysis buffer without NaCl and loaded on a mono Q column. Bound proteins were eluted with a linear gradient of NaCl in lysis buffer. Each fraction was analyzed by SDS-PAGE and FASN NADPH consumption assay. The fractions containing FASN were pooled and concentrated to 2-3 mg/mL. Glycerol was added to 20%, and the protein was frozen in liquid N2 and stored at −80° C.
All chemicals were purchased from Sigma (St. Louis, Mo.). The procedures of NADPH consumption assay were similar to those described in Cox et al., PNAS 1983, 80:4233-4237. On a 96-well polypropylene microplate, dilution series (typical concentrations 60 nM-1.0 mM) of test compounds were prepared in DMSO, of which 4.0 μL each was transferred to a black polystyrene assay microplate and mixed with 36 μL FASN assay buffer (50 mM potassium phosphate, pH 7.0, 1.0 mM EDTA, 0.01% NP-40) plus 5.0 mM fresh DTT. FASN protein (40 μL 150 nM FASN) was added per well, and the microplate was incubated at 37° C. for 30 min. Enzyme activity measurement was initiated by addition of 20 μL 5× substrate mixture to final concentrations of 60 nM FASN, 2.4 nM-40 μM compound, 0.2 mM NADPH, 50 μM butyryl-CoA, 0.5 mM malonyl-CoA in 100 μL assay buffer plus 5.0 mM DTT and 4.0% DMSO. NADPH consumption was monitored kinetically by fluorescence (λEx=340 nm, λEm=460 nm) on an EnVision 2100 multilabel plate reader (Perkin Elmer, Waltham, Mass.). FASN enzyme activity (slope) in the presence of 4% DMSO was used as maximum control, whereas background (minimum control) was measured by omission of malonyl-CoA in the substrate mixture. Inhibition curves were fitted by a logistic function to yield IC50 values:
Compounds were assayed as inhibitors of human FASN using the above-described FASN Scintillation Proximity Flashplate Assay (IC50; nM) or FASN NADPH Consumption Assay (*) (IC50; nM). The corresponding activity of the isolated compound is also provided along with the measured mass (ES^+).

T1 sequence (P49327 whole entry): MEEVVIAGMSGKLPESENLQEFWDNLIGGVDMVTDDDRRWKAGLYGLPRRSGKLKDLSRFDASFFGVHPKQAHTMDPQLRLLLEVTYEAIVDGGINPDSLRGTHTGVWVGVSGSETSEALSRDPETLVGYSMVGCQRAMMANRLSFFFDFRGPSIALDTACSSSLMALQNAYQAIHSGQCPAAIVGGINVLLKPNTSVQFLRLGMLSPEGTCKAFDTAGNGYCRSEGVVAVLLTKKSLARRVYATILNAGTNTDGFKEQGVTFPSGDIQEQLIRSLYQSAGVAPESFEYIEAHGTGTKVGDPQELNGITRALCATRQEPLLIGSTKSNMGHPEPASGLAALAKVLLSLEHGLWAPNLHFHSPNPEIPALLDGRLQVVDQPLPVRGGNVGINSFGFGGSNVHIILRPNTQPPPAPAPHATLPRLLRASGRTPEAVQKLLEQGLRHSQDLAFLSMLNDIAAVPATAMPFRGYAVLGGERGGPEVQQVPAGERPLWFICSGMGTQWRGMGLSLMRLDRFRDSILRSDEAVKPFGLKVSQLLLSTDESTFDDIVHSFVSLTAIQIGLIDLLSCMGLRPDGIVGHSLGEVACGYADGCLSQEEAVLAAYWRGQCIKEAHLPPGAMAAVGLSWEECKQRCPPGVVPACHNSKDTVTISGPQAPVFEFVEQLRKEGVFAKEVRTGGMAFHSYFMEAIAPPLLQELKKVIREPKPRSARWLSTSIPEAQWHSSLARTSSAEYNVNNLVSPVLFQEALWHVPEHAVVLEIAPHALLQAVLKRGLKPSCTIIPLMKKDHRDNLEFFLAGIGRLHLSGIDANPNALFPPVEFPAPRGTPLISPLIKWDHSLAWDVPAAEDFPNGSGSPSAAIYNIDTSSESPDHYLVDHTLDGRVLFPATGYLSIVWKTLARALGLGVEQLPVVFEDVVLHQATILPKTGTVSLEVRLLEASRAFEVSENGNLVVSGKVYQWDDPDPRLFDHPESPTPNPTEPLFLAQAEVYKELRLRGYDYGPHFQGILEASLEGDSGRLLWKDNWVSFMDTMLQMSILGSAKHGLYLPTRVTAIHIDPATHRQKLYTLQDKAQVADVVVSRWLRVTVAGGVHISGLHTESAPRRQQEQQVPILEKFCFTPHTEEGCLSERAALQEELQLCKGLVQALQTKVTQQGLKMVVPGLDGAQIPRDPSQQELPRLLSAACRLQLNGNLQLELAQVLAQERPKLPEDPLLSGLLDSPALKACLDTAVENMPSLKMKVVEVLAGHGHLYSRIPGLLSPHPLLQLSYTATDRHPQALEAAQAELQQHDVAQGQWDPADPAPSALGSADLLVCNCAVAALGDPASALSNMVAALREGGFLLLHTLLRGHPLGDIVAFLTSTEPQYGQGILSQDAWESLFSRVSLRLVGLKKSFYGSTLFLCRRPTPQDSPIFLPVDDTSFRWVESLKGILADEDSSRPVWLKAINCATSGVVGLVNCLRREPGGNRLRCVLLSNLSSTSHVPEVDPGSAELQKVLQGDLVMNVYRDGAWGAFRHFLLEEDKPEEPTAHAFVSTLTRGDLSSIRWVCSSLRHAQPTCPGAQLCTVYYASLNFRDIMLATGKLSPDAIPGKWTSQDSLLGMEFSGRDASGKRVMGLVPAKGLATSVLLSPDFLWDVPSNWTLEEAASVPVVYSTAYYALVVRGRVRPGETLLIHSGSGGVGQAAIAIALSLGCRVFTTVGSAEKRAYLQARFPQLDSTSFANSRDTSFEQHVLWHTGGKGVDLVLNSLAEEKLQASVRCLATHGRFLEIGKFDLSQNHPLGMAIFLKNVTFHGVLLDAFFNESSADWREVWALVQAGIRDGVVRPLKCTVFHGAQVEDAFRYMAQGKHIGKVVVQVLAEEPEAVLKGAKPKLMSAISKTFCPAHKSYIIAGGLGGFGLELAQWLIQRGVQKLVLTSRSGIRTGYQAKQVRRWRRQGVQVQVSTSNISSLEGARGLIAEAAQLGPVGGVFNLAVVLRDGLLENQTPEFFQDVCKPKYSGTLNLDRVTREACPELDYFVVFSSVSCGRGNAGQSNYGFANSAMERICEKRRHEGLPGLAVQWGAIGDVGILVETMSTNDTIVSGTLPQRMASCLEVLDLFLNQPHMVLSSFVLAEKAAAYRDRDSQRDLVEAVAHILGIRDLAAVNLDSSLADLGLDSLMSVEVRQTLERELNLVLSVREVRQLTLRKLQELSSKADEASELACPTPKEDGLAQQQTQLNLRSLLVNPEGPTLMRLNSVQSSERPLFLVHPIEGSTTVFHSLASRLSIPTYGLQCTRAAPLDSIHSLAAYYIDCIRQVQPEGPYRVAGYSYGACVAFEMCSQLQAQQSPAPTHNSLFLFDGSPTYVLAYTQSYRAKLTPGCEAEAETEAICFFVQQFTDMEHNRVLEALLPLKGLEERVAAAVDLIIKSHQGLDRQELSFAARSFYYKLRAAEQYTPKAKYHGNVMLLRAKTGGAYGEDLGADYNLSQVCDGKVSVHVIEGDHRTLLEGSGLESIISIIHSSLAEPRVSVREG

Compound | IC50
CCCCCCCCCCCCN(C)C(=O)n1nnn(-c2ccccc2Cl)c1=O | 250 to 1000 nM
CCN(C(=O)n1nnn(-c2ccccc2Oc2ccccc2)c1=O)c1ccccc1F | 60 to 250 nM
CN1C2CCC1CC(N(CCc1ccccc1)C(=O)n1nnn(-c3c(Cl)cccc3Cl)c1=O)C2 (stereo not drawn) | > 10000 nM
CCOC(=O)N1CCCC(N(CC)C(=O)n2nnn(-c3c(Cl)cccc3Cl)c2=O)C1 (stereo not drawn) | 1000 to 10000 nM
CCN(C(=O)n1nnn(-c2c(Cl)cccc2Cl)c1=O)C1CCN(C)CC1 | > 10000 nM
CN(C(=O)n1nnn(-c2c(F)cccc2F)c1=O)c1ccccc1Cl | < 60 nM
COc1ccc(C(=O)O)cc1N(CCCc1ccccc1)C(=O)n1nnn(-c2ccccc2OC)c1=O | 250 to 1000 nM
O=C(N(c1ccccc1)c1ccccc1)n1nnn(-c2ccccc2Oc2ccccc2)c1=O | 60 to 250 nM
CC1CCc2ccccc2N1C(=O)n1nnn(-c2c(F)cccc2F)c1=O (stereo not drawn) | 60 to 250 nM
O=C(N1CCCCC1)n1nnn(-c2c(Cl)cccc2Cl)c1=O | 1000 to 10000 nM
CCCN(C)C(=O)n1nnn(-c2ccccc2Cl)c1=O | > 10000 nM
O=C(O)C1CCN(C(=O)n2nnn(-c3c(Cl)cccc3Cl)c2=O)CC1 | > 10000 nM
CCN(C(=O)n1nnn(-c2c(F)cccc2C(=O)O)c1=O)c1ccccc1Oc1ccccc1 | 1000 to 10000 nM
CCCCCCN(C(=O)n1nnn(-c2ccccc2OC)c1=O)c1cc(C(=O)OCc2ccccc2)ccc1OC | 1000 to 10000 nM
CCN(C(=O)n1nnn(-c2c(Cl)cccc2Cl)c1=O)C1CCC(N(C)C)CC1 (stereo not drawn) | > 10000 nM
CCN(C(=O)n1nnn(-c2c(F)cccc2F)c1=O)c1ccc(C(=O)NC(C)C)cc1F | < 60 nM
CCN(C(=O)n1nnn(-c2c(Cl)cccc2Cl)c1=O)C1CCN(C(=O)OC(C)(C)C)CC1 | 1000 to 10000 nM
CCN(C(=O)n1nnn(-c2c(F)cccc2C#Cc2ccccc2C)c1=O)c1ccccc1 | 60 to 250 nM
CN(C(=O)n1nnn(-c2c(F)cccc2F)c1=O)c1ccccc1F | 60 to 250 nM
CCN(C(=O)n1nnn(-c2c(Cl)cccc2Cl)c1=O)C1CCCC(C(=O)O)C1 (stereo not drawn) | 1000 to 10000 nM
O=C(N(Cc1ccco1)C1CCCCC1)n1nnn(-c2c(Cl)cccc2Cl)c1=O | > 10000 nM
CCN(C(=O)n1nnn(-c2c(Cl)cccc2Cl)c1=O)c1ccc(C(=O)NS(=O)(=O)c2ccccc2)cc1 | 60 to 250 nM
CCN(C(=O)n1nnn(-c2c(Cl)cccc2Cl)c1=O)c1ccc(C(=O)O)c(OC)c1 | 60 to 250 nM
CCCCc1ccc(-n2nnn(C(=O)N(CC)C3CCCCC3)c2=O)c(C)c1 | > 10000 nM
CCN(C(=O)n1nnn(-c2c(Cl)cccc2Cl)c1=O)c1cc(C(=O)O)ccc1Cl | < 60 nM
CN(C(=O)n1nnn(-c2ccccc2Cl)c1=O)C1CCCCC1 | 1000 to 10000 nM

Compound | IC50
CCN(C(=O)n1nnn(-c2ccccc2OC)c1=O)c1ccc(C(=O)O)c(OC)c1 | 60 to 250 nM
Cc1ccccc1C#Cc1cccc(F)c1-n1nnn(C(=O)N2CCCCc3ccccc32)c1=O | 60 to 250 nM
CCN(CC)C(=O)C1CCCN(C(=O)n2nnn(-c3c(Cl)cccc3Cl)c2=O)C1 (stereo not drawn) | 1000 to 10000 nM
O=C(N1CCCc2cc([N+](=O)[O-])ccc21)n1nnn(-c2c(F)cccc2F)c1=O | 1000 to 10000 nM
CCN(C(=O)n1nnn(-c2ccccc2OC)c1=O)c1ccc(OC)c(C(=O)O)c1 | 250 to 1000 nM
O=C(N1CCc2ccccc2C1)n1nnn(-c2c(F)cccc2F)c1=O | 250 to 1000 nM
CC(C)(C)OC(=O)N(C(=O)n1nnn(-c2c(F)cccc2F)c1=O)c1ccco1 | 1000 to 10000 nM
CCN(C)C(=O)n1nnn(-c2ccccc2Cl)c1=O | > 10000 nM
CCN(C(=O)n1nnn(-c2c(F)cccc2F)c1=O)c1ccccc1-c1ccccc1 | 1000 to 10000 nM
CCN(C(=O)n1nnn(-c2c(Cl)cccc2Cl)c1=O)C1CCCC(C(=O)N2CCOCC2)C1 (stereo not drawn) | 1000 to 10000 nM
O=C(N1CCCc2ccccc21)n1nnn(-c2ccccc2Oc2ccccc2)c1=O | 60 to 250 nM
CC(C)(C)OC(=O)NC1CCCN(C(=O)n2nnn(-c3c(Cl)cccc3Cl)c2=O)C1 (stereo not drawn) | 1000 to 10000 nM
CCN(C(=O)n1nnn(-c2c(F)cccc2C#Cc2ccccc2)c1=O)c1ccccc1 | 60 to 250 nM
CCNC(=O)N1CCCC(N(CC)C(=O)n2nnn(-c3c(Cl)cccc3Cl)c2=O)C1 (stereo not drawn) | 1000 to 10000 nM
COc1ccc2c(c1)CCCN2C(=O)n1nnn(-c2c(F)cccc2F)c1=O | 60 to 250 nM
CCN(C(=O)n1nnn(-c2c(Cl)cccc2Cl)c1=O)C1CCC(C(=O)NC(C(N)=O)c2ccccc2)CC1 (stereo not drawn) | 1000 to 10000 nM
Cc1nonc1NC(=O)CN(C(=O)n1nnn(-c2c(Cl)cccc2Cl)c1=O)C1CCCCC1 | > 10000 nM
O=C(N1CCCc2cc(Br)ccc21)n1nnn(-c2c(F)cccc2F)c1=O | 60 to 250 nM
CCN(C(=O)n1nnn(-c2c(F)cccc2F)c1=O)c1ccc(C(=O)O)cc1 | < 60 nM
CCN(C(=O)n1nnn(-c2c(Cl)cccc2Cl)c1=O)c1cccc(N)c1 | 60 to 250 nM
CC(=O)NCCCN(C(=O)n1nnn(-c2c(Cl)cccc2Cl)c1=O)C1CCCCC1 | 1000 to 10000 nM
CN(C)N(C(=O)n1nnn(-c2cccc(Cl)c2)c1=O)C1=CCCCC1 | 1000 to 10000 nM
CN(C(=O)n1nnn(-c2c(Cl)cccc2Cl)c1=O)c1ccccc1 | 60 to 250 nM
CCN(C(=O)n1nnn(-c2c(F)cccc2F)c1=O)c1ccc(CCc2ccccc2)cc1F | 60 to 250 nM
CCN(C(=O)n1nnn(-c2ccccc2C)c1=O)C1CCCCC1 | 1000 to 10000 nM
CN(C(=O)n1nnn(-c2c(F)cccc2F)c1=O)c1ccc(C#Cc2ccccc2)cc1 | 60 to 250 nM

Compound | IC50
CCN(C(=O)n1nnn(-c2c(F)cccc2F)c1=O)c1ccc(N(S(C)(=O)=O)S(C)(=O)=O)cc1F | < 60 nM
CCCCOc1ccccc1N(CC)C(=O)n1nnn(-c2c(F)cccc2OC)c1=O | 250 to 1000 nM
CN(C(=O)n1nnn(-c2c(F)cccc2F)c1=O)c1ccc(F)cc1 | 60 to 250 nM
CCN(C(=O)n1nnn(-c2c(Cl)cccc2Cl)c1=O)C1CCOC(C)(C)C1 (stereo not drawn) | 1000 to 10000 nM
CCN(C(=O)n1nnn(-c2c(Cl)cccc2Cl)c1=O)c1ccc(C(=O)OCc2ccc(OC)cc2)cc1Cl | 60 to 250 nM
CCN(C(=O)n1nnn(-c2c(Cl)cccc2Cl)c1=O)c1ccc([N+](=O)[O-])cc1 | 60 to 250 nM
O=C(N1c2ccccc2Sc2ccccc21)n1nnn(-c2c(F)cccc2F)c1=O | < 60 nM
CCN(C(=O)n1nnn(-c2c(F)cccc2F)c1=O)c1ccc(Br)cc1 | < 60 nM
CCN(C(=O)n1nnn(-c2c(Cl)cccc2Cl)c1=O)c1cccc(NS(=O)(=O)C(F)(F)F)c1 | 60 to 250 nM
CC(=O)NCCN(C(=O)n1nnn(-c2c(Cl)cccc2Cl)c1=O)C1CCCCC1 | > 10000 nM
COc1cccc(N(C)C(=O)n2nnn(-c3c(F)cccc3F)c2=O)c1 | 60 to 250 nM
O=C(C1CCCN(C(=O)n2nnn(-c3c(Cl)cccc3Cl)c2=O)C1)N1CCCCC1 (stereo not drawn) | 1000 to 10000 nM
Cc1ccc2c(c1)CCCN2C(=O)n1nnn(-c2c(F)cccc2F)c1=O | 60 to 250 nM
CCNC(=O)NCCCN(C(=O)n1nnn(-c2c(Cl)cccc2Cl)c1=O)C1CCCCC1 | 1000 to 10000 nM
CCN(C(=O)n1nnn(-c2c(F)cccc2F)c1=O)c1ccccc1OC(F)(F)F | 60 to 250 nM
CCN(C(=O)n1nnn(-c2c(F)cccc2F)c1=O)c1cccc2ccccc12 | 60 to 250 nM
O=C(N1CCCC2CCCCC21)n1nnn(-c2c(F)cccc2Br)c1=O (stereo not drawn) | 60 to 250 nM
O=C(N(c1ccccc1)c1ccccc1)n1nnn(-c2c(F)cccc2F)c1=O | 60 to 250 nM
O=C(N1CCOc2ccccc21)n1nnn(-c2c(F)cccc2F)c1=O | 1000 to 10000 nM
CCN(C(=O)n1nnn(-c2c(Cl)cccc2Cl)c1=O)c1ccc(NS(=O)(=O)C(F)(F)F)cc1 | 60 to 250 nM
C[C@@H]1CC(=O)[C@@H]2CCCC[C@H]2N1C(=O)n1nnn(-c2c(F)cccc2F)c1=O | 1000 to 10000 nM
CCN(C(=O)n1nnn(-c2c(C)noc2C)c1=O)C1CCCCC1 | > 10000 nM
CCN(C(=O)n1nnn(-c2c(F)cccc2OC)c1=O)c1ccccc1C(C)(C)C | 1000 to 10000 nM
COc1cccc(F)c1-n1nnn(C(=O)N(c2cccc(C(=O)O)c2)C2CC2)c1=O | 60 to 250 nM
O=C(Nc1ccccc1)n1nnn(-c2ccccc2)c1=O | > 10000 nM
CCN(C(=O)n1nnn(-c2c(F)cccc2F)c1=O)c1ccc([N+](=O)[O-])cc1F | 60 to 250 nM
